Reference: paper PMC4335513 (Critical Care, 2015)
In brackets after ≈: the same amount, converted by molar mass. Like-named read-outs stand apart in the source and are kept apart here. *1 amine or outer side, *2 acyl side, *3 side chain or, on linkers, in order; H or OH if unused. Where a SMILES comes first, the peptide text is derived from it. Bridges are numbered along the chain shown (N, C = ends). [ ]: non-standard residue; d: D form. The star is where a group is joined. pTerphenylCO(4''-OnC5H11) = CCCCCOc1ccc(-c2ccc(-c3ccc(C(=O)*)cc3)cc2)cc1; Orn(4R-OH,5R-OH) = O=C([C@H](C[C@@H](O)[C@@H](O)N[*:3])N[*:1])[*:2]; hTyr(3S-OH,4S-OH) = N[C@H](C(=O)O)[C@H](O)[C@@H](O)c1ccc(O)cc1; Pro(3S-OH,4S-Me) = C[C@H]1CN[C@H](C(=O)O)[C@H]1O; Hyp = O=C(O)[C@@H]1C[C@@H](O)CN1

How the values were obtained:
[1] = parameters: AUC 0–24: unit not given beside the values; conditions: healthy volunteers; mean (%CV); ref Liu et al. [25]; cited from earlier work
Source text: Table 2 Comparison of exposures achieved in this study with other studies (mean (%CV)) | column: Anidulafungin / Liu et al. (healthy volunteers)

[2] = parameters: AUC 0–24: unit not given beside the values; conditions: ICU patients; mean (%CV); ref Liu et al. [25]; cited from earlier work
Source text: Table 2 Comparison of exposures achieved in this study with other studies (mean (%CV)) | column: Anidulafungin / Liu et al. (ICU patients)

[3] = Plasma pharmacokinetics in critically ill ICU patients (DALI study), noncompartmental analysis; type: in vivo, human
Procedure: The Defining Antibiotic Levels in Intensive care unit patients (DALI) study was a prospective, multicenter PK point-prevalence study. The protocol has been published in detail previously, and the participating investigators are listed in Additional file 1).
The choice of antifungal agent and dosing was at the discretion of the treating clinician. Each patient had three blood samples taken: blood sample A was a peak concentration taken 30 minutes after completion of intravenous infusion; blood sample B was a mid-dose blood sample taken 50% of the way through a dosing interval; and blood sample C was a pre-dose concentration taken at the end of a dosing interval (within 30 minutes of the next dose).
The stationary phase was a Kinetex C8 (50 × 2.10 mm, 1.7 μm) UHPLC column (Phenomenex, Torrance, CA, USA).
For anidulafungin analysis, the supernatant was washed with dichloromethane to remove lipid-soluble components. […] The methods were validated for linearity, LLOQ, matrix effects, precision and accuracy, and stock stability by using the FDA criteria for bioanalysis.
Clearance (CL) was calculated by using the equation Dose/AUC0-∞.

[4] = Clinical outcome of therapy and mortality at 30 days in ICU patients; type: in vivo, human; conditions: for patients with positive clinical outcome: completion of treatment course without change or addition of antifungal therapy; for 30-day mortality: died by day 30; for patients with indeterminate clinical outcome: outcome of therapy could not be judged
Procedure: (§1) Data collection was performed by trained staff at each participating center and entered into a case report form. Various demographic and clinical data were collected, including age, gender, height, weight, admission diagnosis, presence of extracorporeal circuits (for example, renal replacement therapy), clinical outcome of infection, and mortality at 30 days. A positive clinical outcome of therapy was defined as completion of treatment course without change or addition of antifungal therapy and with no additional antifungals commenced within 48 hours of discontinuation of the therapy, and if the outcome of therapy could not be judged for any reason, it was recorded as indeterminate. Also, organ-function data (including renal function: serum creatinine concentration during studied dosing interval; 24-hour measured urinary creatinine clearance (CrCL) (where available), antibiotic dosing (dose and frequency, time of dosing and sampling, day of antibiotic therapy), and infection data (including known or presumed pathogen and pathogen MIC) were collected.

[5] = surgical ICU patients; ref Nguyen et al. [28]; cited from earlier work
Source text: However, variability was higher compared with healthy volunteers (Table 2). This may be attributed to underlying pathophysiological changes that occur in ICU patients. The observed anidulafungin variability in AUC0–24, Cmin, and Cmax was not as high as observed in the study by Liu et al., who recruited a larger cohort of surgical ICU patients but was higher than variability observed in healthy volunteers (Table 2). The PK parameter estimates were ...

[6] = parameters: AUC 0–24: unit not given beside the values; conditions: general patients; mean (%CV); ref Wurthwein et al. [26]; cited from earlier work
Source text: Table 2 Comparison of exposures achieved in this study with other studies (mean (%CV)) | column: Caspofungin / Wurthwein et al. (general patients)

[7] = parameters: AUC 0–24: unit not given beside the values; conditions: healthy volunteers; mean (95% CI); ref Stone et al. [27]; cited from earlier work
Source text: Table 2 Comparison of exposures achieved in this study with other studies (mean (%CV)) | column: Caspofungin / Stone et al. [27]^a (healthy volunteers)

[8] = human, in vivo; cited from earlier work
[9] = tested on: C. albicans; test: Pathogen MIC reported for patient isolate; type: cell-based; conditions: Candida albicans
Procedure: as §1

Question: Which results are given for `CCCCCOc1ccc(-c2ccc(-c3ccc(C(=O)N[C@H]4C[C@@H](O)[C@@H](O)NC(=O)[C@@H]5[C@@H](O)[C@@H](C)CN5C(=O)[C@H]([C@@H](C)O)NC(=O)[C@H]([C@H](O)[C@@H](O)c5ccc(O)cc5)NC(=O)[C@@H]5C[C@@H](O)CN5C(=O)[C@H]([C@@H](C)O)NC4=O)cc3)cc2)cc1` [Anidulafungin, anidulafungin] ({pTerphenylCO(4''-OnC5H11)}-[Orn(4R-OH,5R-OH)]T[Hyp][hTyr(3S-OH,4S-OH)]T[Pro(3S-OH,4S-Me)]; lactam 1-C)?
Answer: AUC 0–24 [1]: 105.0 (22); C max [1]: 7.0 (22); C min [1]: 3.1 (25); AUC 0–24 [2]: 93.0 (41); C max [2]: 7.7 (56); C min [2]: 3.0 (44); AUC 0–24 ([3]; This study, ICU patients, anidulafungin 100 mg, plasma, UHPLC-MS/MS, linear trapezoidal, mean (%CV), n = 9): 55 (28); C max ([3]; This study, ICU patients, anidulafungin 100 mg, plasma, observed peak 30 min after end of iv infusion, mean (%CV), n = 9): 3.9 (29); C min ([3]; This study, ICU patients, anidulafungin 100 mg, plasma, observed pre-dose concentration, mean (%CV), n = 9): 1.8 (30); patients with positive clinical outcome [4]: 67%; 30-day mortality [4]: 11%; patients with indeterminate clinical outcome [4]: 33%

Question: For `CC[C@H](C)C[C@H](C)CCCCCCCCC(=O)N[C@H]1C[C@@H](O)[C@@H](NCCN)NC(=O)[C@@H]2[C@@H](O)CCN2C(=O)[C@H]([C@H](O)CCN)NC(=O)[C@H]([C@H](O)[C@@H](O)c2ccc(O)cc2)NC(=O)[C@@H]2C[C@@H](O)CN2C(=O)[C@H]([C@@H](C)O)NC1=O` [Caspofungin, caspofungin], which “Cmin (range observed)” value [5] is on record?
Answer: 500 to 4100 ng/mL

Question: What about the “AUC 0–24” value ([3]; This study, ICU patients, caspofungin 70 mg (loading dose), 70% sampled on day 1, plasma, UHPLC-MS/MS, mean (%CV)) of the same compound?
Answer: 52.0 (53)

Question: What about the C max ([3]; This study, ICU patients, caspofungin 70 mg (loading dose), plasma, observed peak, mean (%CV)) of the same compound?
Answer: 3.9 (55)

Question: What about the C min ([3]; This study, ICU patients, caspofungin 70 mg (loading dose), plasma, observed pre-dose, mean (%CV)) of the same compound?
Answer: 1.5 (57)

Question: And the “AUC 0–24” value [6]?
Answer: 170.0 (34)

Question: And the C max [6]?
Answer: 13.8 (31)

Question: What about the “AUC 0–24” value [7] of the same compound?
Answer: 97.0 (87–109)

Question: What about the C max [7] of the same compound?
Answer: 12.1 (11–13)

Question: And the C min [7]?
Answer: 1.4 (1.1–1.8)

Question: What about the “patients with positive clinical outcome” value [4] of the same compound?
Answer: 43%

Question: What about the 30-day mortality [4] of the same compound?
Answer: 29%

Question: And the “patients with indeterminate clinical outcome” value [4]?
Answer: 11%

Question: What does the source list for `OC(Cn1cncn1)(Cn1cncn1)c1ccc(F)cc1F` [Fluconazole, fluconazole]?
Answer: AUC 0–24 [8]: 409 (336–482); C max [8]: 25 (22–28); C max ([3]; human, in vivo): 20 (14); AUC 0–24 ([3]; human, in vivo, SD): 359 (259); MIC [9]: 0.75 µg/mL (≈ 2.45 µM); patients with positive clinical outcome [4]: 27%; 30-day mortality [4]: 47%; patients with indeterminate clinical outcome [4]: 40%
